We go through three compounds from patent publication US11648208B2, “Nano complex comprising a nano drug delivery matrix; and a ginseng extract or a ginsenoside isolated therefrom” (priority 2016, dated 2023).

Data set [1] in a line: Solubility for water (microscopic images, HPLC of supernatants). It is filed as physicochemical. The source says:
High water solubility advantageously enhances pharmacokinetic properties such as bioavailability, membrane permeability, therapeutic activity, etc.

The subject of data set [2] is keratinocyte (HaCaT Skin). Briefly: Cytotoxicity by MTT assay on keratinocytes. The following applies: up to a concentration of 15 μM. A general note: Tetrazolium dyes change colour on reduction, which living cells bring about.
In data set [3] the test system is Salmonella enterica [ATCC 13076]. Briefly: Antimicrobial activity, disk diffusion method on Muller-Hinton agar. The class given is cell-based. The following applies: in mm. (In general: In agar diffusion tests the substance spreads into inoculated agar from a disc or well.)
Data set [4] deals with Vibrio parahaemolyticus [ATCC 33844]. Described as above. It is filed as cell-based. As to conditions: in mm.
Data set [5] deals with Escherichia coli [ATCC 10798]. The description is as above. The class given is cell-based. As to conditions: in mm.

Molecules are shown by their SMILES.

On to `CC(C)=CCC[C@](C)(O[C@@H]1O[C@H](CO)[C@@H](O)[C@H](O)[C@H]1O)[C@H]1CC[C@]2(C)[C@@H]1[C@H](O)C[C@@H]1[C@@]3(C)CC[C@H](O)C(C)(C)[C@@H]3CC[C@]12C` [CK, ginsenoside Compound K], for which the solubility for water entry in data set [1] was “insoluble even at a low concentration”.
In the case of `CC(C)=CCC[C@](C)(O)[C@H]1CC[C@]2(C)[C@@H]1[C@H](O)C[C@@H]1[C@@]3(C)CC[C@H](O[C@@H]4O[C@H](CO)[C@@H](O)[C@H](O)[C@H]4O)C(C)(C)[C@@H]3CC[C@]12C` [Rh2, 20(S)-protopanaxdiol-3-O-β-D-glucopyranoside], the “cytotoxicity on keratinocyte cell line” value in data set [2] is reported as “showed cytotoxicity”. For the same compound, the solubility for water result in data set [1] is listed as “insoluble even at a low concentration”.
For the compound `CN(C)[C@@H]1C(=O)C(C(N)=O)=C(O)[C@@]2(O)C(=O)C3=C(O)c4c(O)cccc4[C@@](C)(O)[C@H]3C[C@@H]12` [Tetracyclin, tetracycline], the Zone of inhibition amounted to 30 ± 0.3 in data set [3], 25 ± 0.6 in data set [4] and 20 ± 0.1 in data set [5].
